Several values for one entry are separate records, joined by “and”; a condition that tells them apart may be missing. Equal values may be shown once. Toxic doses and inconclusive results are not listed.
Tested on: BDF1 mice, P388 leukemia ip, median survival T/C
Experiment: NCI In Vivo Anticancer Drug Screen. Data for tumor model P388 Leukemia (intraperitoneal) in B6D2F1 (BDF1) mice
Conditions: endpoint: median survival time, higher = longer survival
How it was run: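 Transplantable tumour in mice; compound vs vehicle dosing; survival scored; ratio of treated to control reported.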

[1] = dose: 12.5 mg/kg/injection, schedule: Q01DX009 (ip), vehicle: saline with Tween-80
[2] = dose: 25.0 mg/kg/injection, schedule: Q01DX009 (ip), vehicle: saline with Tween-80
[3] = dose: 50.0 mg/kg/injection, schedule: Q01DX009 (ip), vehicle: saline with Tween-80
[4] = dose: 100.0 mg/kg/injection, schedule: Q01DX009 (ip), vehicle: saline with Tween-80
[5] = dose: 200.0 mg/kg/injection, schedule: Q01DX009 (ip), vehicle: saline with Tween-80
[6] = dose: 50.0 mg/kg/injection, schedule: Q01DX009 (ip), vehicle: saline
[7] = dose: 100.0 mg/kg/injection, schedule: Q01DX009 (ip), vehicle: saline
[8] = dose: 200.0 mg/kg/injection, schedule: Q01DX009 (ip), vehicle: saline
[9] = dose: 100.0 mg/kg/injection, schedule: Q04DX003 (ip), vehicle: saline
[10] = dose: 200.0 mg/kg/injection, schedule: Q04DX003 (ip), vehicle: saline

Structure (SMILES): Clc1ccc(C(c2ccc(Cl)cc2)C(Cl)(Cl)Cl)cc1
- T/C [1]: 102 % of control
- T/C [2]: 102 % of control
- T/C [3]: 88 % of control

Structure (SMILES): C[C@]12CC[C@@H]3c4ccc(O)cc4CC[C@H]3[C@@H]1C[C@H](O)C2
- T/C (dose: 100.0 mg/kg/injection, schedule: Q01DX009 (ip), vehicle: Klucel (hydroxypropylcellulose) (HPC)): 100 % of control
- T/C (dose: 100.0 mg/kg/injection, schedule: Q04DX003 (ip), vehicle: Klucel (hydroxypropylcellulose) (HPC)): 100 % of control
- T/C (dose: 200.0 mg/kg/injection, schedule: Q01DX009 (ip), vehicle: Klucel (hydroxypropylcellulose) (HPC)): 95 % of control
- T/C (dose: 200.0 mg/kg/injection, schedule: Q04DX003 (ip), vehicle: Klucel (hydroxypropylcellulose) (HPC)): 100 % of control
- T/C (dose: 400.0 mg/kg/injection, schedule: Q01DX009 (ip), vehicle: Klucel (hydroxypropylcellulose) (HPC)): 112 % of control
- T/C (dose: 400.0 mg/kg/injection, schedule: Q04DX003 (ip), vehicle: Klucel (hydroxypropylcellulose) (HPC)): 91 % of control

Structure (SMILES): CCOC(=O)C(Cc1ccccc1)P(=O)(OCC)OCC (configuration not stated)
- T/C [4]: 109 % of control
- T/C [5]: 104 % of control

Structure (SMILES): O=C1CN=C(c2ccc[nH]2)c2cc(Cl)ccc2N1
- T/C [2]: 118 % of control
- T/C (dose: 45.0 mg/kg/injection, schedule: Q01DX009 (oral), vehicle: saline): 104 % of control
- T/C [3]: 100 % of control
- T/C [6]: 97 % of control
- T/C (dose: 65.0 mg/kg/injection, schedule: Q01DX009 (oral), vehicle: saline): 100 % of control
- T/C (dose: 100.0 mg/kg/injection, schedule: Q01DX001 (ip), vehicle: saline with Tween-80): 95 % of control
- T/C (dose: 100.0 mg/kg/injection, schedule: Q01DX001 (oral), vehicle: saline with Tween-80): 90 % of control
- T/C [4]: 118 % of control
- T/C [7]: 105 % of control
- T/C (dose: 100.0 mg/kg/injection, schedule: Q01DX009 (oral), vehicle: saline with Tween-80): 95 % of control
- T/C (dose: 200.0 mg/kg/injection, schedule: Q01DX001 (ip), vehicle: saline with Tween-80): 104 % of control
- T/C (dose: 200.0 mg/kg/injection, schedule: Q01DX001 (oral), vehicle: saline with Tween-80): 86 % of control
- T/C [5]: 118 % of control
- T/C [8]: 97 % of control
- T/C (dose: 200.0 mg/kg/injection, schedule: Q01DX009 (oral), vehicle: saline with Tween-80): 104 % of control
- T/C (dose: 400.0 mg/kg/injection, schedule: Q01DX001 (ip), vehicle: saline with Tween-80): 90 % of control
- T/C (dose: 400.0 mg/kg/injection, schedule: Q01DX001 (oral), vehicle: saline with Tween-80): 95 % of control
- T/C (dose: 400.0 mg/kg/injection, schedule: Q01DX009 (ip), vehicle: saline with Tween-80): 163 % of control
- T/C (dose: 400.0 mg/kg/injection, schedule: Q01DX009 (ip), vehicle: saline): 103 % of control
- T/C (dose: 800.0 mg/kg/injection, schedule: Q01DX001 (ip), vehicle: saline with Tween-80): 109 % of control
- T/C (dose: 800.0 mg/kg/injection, schedule: Q01DX001 (oral), vehicle: saline with Tween-80): 100 % of control

Structure (SMILES): C[n+]1ccc2cc(-c3ccccc3)c3ccccc3c2c1
- T/C (dose: 0.06 mg/kg/injection, schedule: Q01DX009 (ip), vehicle: water): 100 % of control
- T/C (dose: 0.12 mg/kg/injection, schedule: Q01DX009 (ip), vehicle: water): 88 % of control
- T/C (dose: 0.25 mg/kg/injection, schedule: Q01DX009 (ip), vehicle: water): 89 % of control
- T/C (dose: 0.5 mg/kg/injection, schedule: Q01DX009 (ip), vehicle: water): 100 % of control
- T/C (dose: 1.0 mg/kg/injection, schedule: Q01DX009 (ip), vehicle: water): 100 % of control and 101 % of control
- T/C (dose: 2.0 mg/kg/injection, schedule: Q01DX009 (ip), vehicle: water): 101 % of control
- T/C (dose: 4.0 mg/kg/injection, schedule: Q01DX009 (ip), vehicle: water): 99 % of control

Structure (SMILES): CC(C)C(NC(=O)CN)C(=O)OCCCCS(=O)(=O)c1ccc(CO)cc1 (configuration not stated)
- T/C (dose: 50.0 mg/kg/injection, schedule: Q01DX005 (ip), vehicle: suspension in saline): 100 % of control
- T/C (dose: 100.0 mg/kg/injection, schedule: Q01DX005 (ip), vehicle: suspension in saline): 100 % of control
- T/C (dose: 200.0 mg/kg/injection, schedule: Q01DX005 (ip), vehicle: suspension in saline): 95 % of control

Structure (SMILES): S=c1nc(-c2ccccc2)c(-c2ccccc2)n[nH]1
- T/C (dose: 20.0 mg/kg/injection, schedule: Q01DX001 (ip), vehicle: other): 95 % of control
- T/C (dose: 40.0 mg/kg/injection, schedule: Q01DX001 (ip), vehicle: other): 86 % of control
- T/C (dose: 40.0 mg/kg/injection, schedule: Q04DX003 (ip), vehicle: saline with Tween-80): 104 % of control
- T/C (dose: 75.0 mg/kg/injection, schedule: Q01DX001 (ip), vehicle: other): 122 % of control
- T/C (dose: 75.0 mg/kg/injection, schedule: Q04DX003 (ip), vehicle: saline with Tween-80): 108 % of control
- T/C (dose: 150.0 mg/kg/injection, schedule: Q01DX001 (ip), vehicle: other): 90 % of control
- T/C (dose: 150.0 mg/kg/injection, schedule: Q04DX003 (ip), vehicle: saline with Tween-80): 116 % of control

Structure (SMILES): CNC(C)(C)CO
- T/C [7]: 105 % of control
- T/C [9]: 104 % of control
- T/C [8]: 115 % of control
- T/C [10]: 95 % of control
- T/C (dose: 400.0 mg/kg/injection, schedule: Q04DX003 (ip), vehicle: saline): 95 % of control

Structure (SMILES): C[N+](C)(Cc1ccccc1)CC(O)COc1ccccc1 (configuration not stated)
- T/C [1]: 96 % of control
- T/C (dose: 12.5 mg/kg/injection, schedule: Q04DX003 (ip), vehicle: saline with Tween-80): 118 % of control
- T/C [2]: 103 % of control
- T/C (dose: 25.0 mg/kg/injection, schedule: Q04DX003 (ip), vehicle: saline with Tween-80): 113 % of control
- T/C (dose: 50.0 mg/kg/injection, schedule: Q04DX003 (ip), vehicle: saline with Tween-80): 104 % of control

Structure (SMILES): CCC1C2CC3C4N(C)c5ccc(Br)cc5C45CC(C2C5O)[N+]3(CC(O)CN2CCCCC2)C1O (configuration not stated)
- T/C (dose: 12.5 mg/kg/injection, schedule: Q01DX009 (ip), vehicle: saline): 106 % of control
- T/C (dose: 25.0 mg/kg/injection, schedule: Q01DX009 (ip), vehicle: saline): 115 % of control
- T/C [6]: 89 % of control and 93 % of control

Structure (SMILES): Cc1ccc(S(=O)C(C)C(Cl)c2ccccc2)cc1 (configuration not stated)
- T/C [3]: 98 % of control
- T/C [4]: 106 % of control
- T/C [5]: 100 % of control

Structure (SMILES): Clc1ccc(CNc2ncnc3[nH]ncc23)cc1
- T/C (dose: 3.13 mg/kg/injection, schedule: Q01DX009 (ip), vehicle: saline with Tween-80): 91 % of control
- T/C (dose: 6.25 mg/kg/injection, schedule: Q01DX009 (ip), vehicle: saline with Tween-80): 87 % of control
- T/C [1]: 89 % of control
- T/C [2]: 105 % of control

Structure (SMILES): CC(=O)N1CCc2cc(N)ccc21
- T/C (dose: 50.0 mg/kg/injection, schedule: Q04DX003 (ip), vehicle: saline): 95 % of control
- T/C [9]: 95 % of control
- T/C [10]: 91 % of control

Structure (SMILES): CN(C)c1ccc(NC(=O)Nc2cccc(Cl)c2)cc1
- T/C (dose: 100.0 mg/kg/injection, schedule: Q04DX003 (ip), vehicle: saline with Tween-80): 95 % of control
- T/C (dose: 200.0 mg/kg/injection, schedule: Q04DX003 (ip), vehicle: saline with Tween-80): 90 % of control
- T/C (dose: 400.0 mg/kg/injection, schedule: Q04DX003 (ip), vehicle: saline with Tween-80): 95 % of control

Structure (SMILES): NNC(=O)OC12CC3CC(CC(C3)C1)C2
- T/C (dose: 12.5 mg/kg/injection, schedule: Q04DX003 (ip), vehicle: Klucel (hydroxypropylcellulose) (HPC)): 105 % of control
- T/C (dose: 25.0 mg/kg/injection, schedule: Q04DX003 (ip), vehicle: Klucel (hydroxypropylcellulose) (HPC)): 105 % of control
- T/C (dose: 50.0 mg/kg/injection, schedule: Q04DX003 (ip), vehicle: Klucel (hydroxypropylcellulose) (HPC)): 120 % of control
- T/C (dose: 63.75 mg/kg/injection, schedule: Q01DX001 (ip), vehicle: Klucel (hydroxypropylcellulose) (HPC)): 100 % of control
- T/C (dose: 127.5 mg/kg/injection, schedule: Q01DX001 (ip), vehicle: Klucel (hydroxypropylcellulose) (HPC)): 122 % of control
- T/C (dose: 255.0 mg/kg/injection, schedule: Q04DX003 (ip), vehicle: Klucel (hydroxypropylcellulose) (HPC)): 90 % of control

Structure (SMILES): CC12OC(=O)CC1CC(=O)O2 (configuration not stated)
- T/C (dose: 50.0 mg/kg/injection, schedule: Q01DX001 (ip), vehicle: saline): 95 % of control
- T/C (dose: 100.0 mg/kg/injection, schedule: Q01DX001 (ip), vehicle: saline): 95 % of control
- T/C (dose: 200.0 mg/kg/injection, schedule: Q01DX001 (ip), vehicle: saline): 105 % of control

Structure (SMILES): CCCCCC(C)(C1=NC(C)(C)CC(C)O1)c1ccccc1 (configuration not stated)
- T/C (dose: 12.5 mg/kg/injection, schedule: Q01DX001 (ip), vehicle: saline sonified): 100 % of control
- T/C (dose: 25.0 mg/kg/injection, schedule: Q01DX001 (ip), vehicle: saline sonified): 100 % of control
- T/C (dose: 50.0 mg/kg/injection, schedule: Q01DX001 (ip), vehicle: saline sonified): 100 % of control
